# Patent US20230329993A1, “PERSONAL CLEANSING COMPOSITION FREE OF ALKYL SULFATE OR ALKYL ETHER SULFATE TYPE OF SURFACTANTS” (The Procter & Gamble Company, priority 2022, published 2023)
# Test: Cone/Plate Viscosity Measurement
# Type: physicochemical
# Settings: composition such as C. Ex. 1; thickener level not stated
# Procedure: The viscosity of the personal cleansing composition is measured by a Cone/Plate Brookfield DV12T, by Brookfield Engineering Laboratories, Stoughton, MA. The cone used (Spindle CPA-41z) has a diameter of […] and 3° angle. The viscosity is determined using a steady state flow experiment at constant shear rate of 2 s^−1 and at temperature of 26.5° C. The sample size is 2.5 mL.
substance,measurement,value
cocamide MEA,Effect of a thickener on enhancing the viscosity of a personal cleansing composition,good response
